Consider 10 molecules from paper PMC10535389, “Can Pharmaceutical Excipients Threaten the Aquatic Environment? A Risk Assessment Based on the Microtox® Biotest” (Molecules, 2023).

The subject of data set [1] is Aliivibrio fischeri (strain NRRL B-11177). Briefly: modified Microtox Basic Solid Phase Test (bioluminescence inhibition). It counts as cell-based. The following applies: for EC50: Aliivibrio fischeri. As to the method:
(§1) The bioluminescent marine bacterium Aliivibrio fischeri (strain NRRL B-11177) was used to evaluate the acute toxicity of individual excipients, as well as the API–excipient and excipient–excipient mixtures (Figure 1). The inhibition of bioluminescence was measured using the Microtox® Model 500 Analyzer (Modern Water Inc., New Castle, DE, USA). The modified Microtox® Basic Solid Phase Test protocol was applied, which was described in detail in our previous work; a scheme illustrating the course of the ecotoxicological study is shown in Figure 4. The bioluminescence inhibition of A. fischeri was measured after 5, 15, and 30 min of exposure of the bacterium to each sample and then compared with the light output of a control sample. […] Software™.

Assay in data set [2]: as above
It counts as cell-based, Aliivibrio fischeri. The note with it: Aliivibrio fischeri, Toxicity Category (Based on EC50, 30 min). How it is done: as §1

Data set [3] can be described thus: pH values of samples used in Microtox test. It counts as physicochemical. The note with it: sample used in Microtox test.
The subject of data set [4] is Aliivibrio fischeri (strain NRRL B-11177). Also noted: method as in earlier work. The following applies: ref [10] (Turek et al., J. Haz. Mat. 399 (2020) 122839), cited from earlier work; for EC50 5 min: 5 min of incubation.
For data set [5], the system named is various aquatic organisms. The following applies: ref [16, 17, 18, 19, 20]; cited from earlier work.
[6] abbreviates: 30 min of exposure, 95% confidence interval in brackets.
Setting [7] is: NRRLB11177, 5 min, read-out: EC50 5 min, 5 min of exposure, 95% confidence interval in brackets.
The mark [8] stands for this setting: NRRLB11177, 0.25 h, 15 min of exposure, 95% confidence interval in brackets, read-out: EC50 15 min.
The mark [9] stands for this setting: NRRLB11177, 0.5 h, 30 min of exposure, 95% confidence interval in brackets, read-out: EC50 30 min.
The mark [10] stands for this setting: 5 min of exposure, 95% confidence interval in brackets.
Where [11] appears, read: 15 min of exposure, 95% confidence interval in brackets.

≈ marks a conversion by molar mass, not a printed value. Where “and” joins values, the source holds several entries; their conditions need not be identical. Identical values can stand only once. Counter-ions that a name gives are not always drawn. Like-named read-outs stand apart in the source and are kept apart here. Marks after values point to notes of the source that are not given here.

`CNC[C@H](O)[C@@H](O)[C@H](O)[C@H](O)CO` [Meglumine]: in data set [1] (setting [6]), the “EC50 30 min” value was 18.05 (7.237–45.02) 0.7516 mg/L. The concentration giving a half-maximal response (EC50) in data set [1] (setting [7]) is 28.6 µg/mL; in data set [1] (setting [8]), 19.7 µg/mL; in data set [1] (setting [9]) it was 10 to 100 µg/mL. Besides, the EC50 at 30 min in data set [2] lay within 10 to 100 µg/mL. In addition, the pH in data set [3] was 10.830 and ~11.

Consider `CCCCC(=O)N(Cc1ccc(-c2ccccc2-c2nnn[nH]2)cc1)[C@H](C(=O)O)C(C)C` [VAL, Valsartan, reference compound], for which, in data set [4], the “EC50 5 min” value is 143.20 µg/mL (≈ 329 µM) and the “EC50 15 min” value was 234.83 µg/mL (≈ 539 µM). For the same molecule, the concentration for a half-maximal effect (EC50) in data set [1] (setting [9]) turned out to be 150 µg/mL (≈ 346 µM). In data set [3], this molecule came in with a pH of 4.970.

Consider `CCCc1nc2c(C)cc(-c3nc4ccccc4n3C)cc2n1Cc1ccc(-c2ccccc2C(=O)O)cc1` [TEL, Telmisartan, reference compound], for which, in data set [4], the “EC50 5 min” value was 196.52 µg/mL (≈ 382 µM) and the “EC50 15 min” value was 99.70 µg/mL (≈ 194 µM). In data set [1] (setting [9]), the half-maximal effective concentration (EC50) came to 77.3 µg/mL (≈ 150 µM). In addition, the pH in data set [3] is 8.036.

`CCCCCCCCCCCCOS(=O)(=O)O` [Sodium lauryl sulfate (SLS), Sodium lauryl sulfate]: in data set [5], the “LC50 (lethal concentration)” value was 1 to 13.9 µg/mL. Also, in data set [1] (setting [6]), the “EC50 30 min” value was 0.5544 (0.1138–2.702) 0.6931 mg/L. The EC50 in data set [1] (setting [7]) is 1.37 µg/mL; in data set [1] (setting [8]), 0.8 µg/mL; in data set [1] (setting [9]), below 1 µg/mL. Also, the EC50 at 30 min in data set [2] is below 1 µg/mL. The pH in data set [3] is recorded as 6.779.

Turning to Magnesium carbonate (heavy), the “EC50 5 min” value in data set [1] (setting [10]) is reported as 109.8 (55.61–216.6) 0.9360 mg/L. Also, the “EC50 15 min” value in data set [1] (setting [11]) is reported as 86.42 (58.99–126.6) 0.9678 mg/L. Moreover, the “EC50 30 min” value in data set [1] (setting [6]) is 65.60 (44.19–97.37) 0.9738 mg/L; in data set [1] (30 min of exposure, 95% confidence interval in brackets, listed as magnesium carbonate), 10 to 100 mg/L. In data set [1] (GHS acute toxicity categories [11]), the “Toxicity Category (Based on EC50, 30 min)” value was “III ((III) harmful, 10 < EC50 < 100 mg/L)”. In addition, the pH in data set [3] turned out to be 10.257.

On to `OC[C@@H](O)[C@@H](O)[C@H](O)[C@H](O)CO` [Mannitol], for which the figures for the EC50 in data set [1] (setting [7]), in data set [1] (setting [8]) and in data set [1] (setting [9]) were 12600 µg/mL (≈ 69000 µM), 5400 µg/mL (≈ 29700 µM) and 4250 µg/mL (≈ 23300 µM), respectively. This molecule also registered a concentration giving a half-maximal response (EC50) at 30 min in data set [2] above 100 µg/mL. Moreover, in data set [3], the pH is 6.390.

In the case of `OC[C@@H](O)[C@@H](O)[C@H](O)[C@@H](O)CO` [Sorbitol], the “EC50 5 min” value in data set [1] (setting [10]) is recorded as “Non-toxic in tested concentration, hormesis”. Besides, the “EC50 15 min” value in data set [1] (setting [11]) is “Non-toxic in tested concentration, hormesis”. For the same molecule, the “EC50 30 min” value in data set [1] (setting [6]) was “Non-toxic in tested concentration, hormesis”; in data set [1] (30 min of exposure, 95% confidence interval in brackets, listed as sorbitol), “completely non-toxic at the tested concentration”. Moreover, in data set [2], the EC50 at 30 min is above 100 µg/mL. In data set [3], this molecule returned a pH of 7.446.

Regarding `CCCCc1nc(Cl)c(CO)n1Cc1ccc(-c2ccccc2-c2nn[nH]n2)cc1` [LOS-K, Losartan potassium, reference compound], in data set [4], the “EC50 5 min” value was 583.88 µg/mL and the “EC50 15 min” value was 659.02 µg/mL. Besides, the EC50 in data set [1] (setting [9]) was determined as 277 µg/mL. Moreover, in data set [3], the pH came out at 7.750.

As to `CCCCCCCCCCCCCCCCCCOC(=O)/C=C/C(=O)[O-].[Na+]` [Sodium stearyl fumarate], the “EC50 5 min” value in data set [1] (5 min, value calculated using two points, 95% confidence interval and R^2 could not be determined) was 56,456 ^[b] mg/L. Moreover, in data set [1] (15 min of exposure, EC50 calculated from extrapolated data), the “EC50 15 min” value was 12,815 ^[a] (38.84–4,457,999) 0.9221 mg/L. The “EC50 30 min” value in data set [1] (30 min of exposure, EC50 calculated from extrapolated data) was 80,534 ^[a] (2479–2,616,211) 0.8896 mg/L.

In the case of `OC[C@H]1O[C@@H](O[C@H]2[C@H](O)[C@@H](O)[C@@H](O)O[C@@H]2CO)[C@H](O)[C@@H](O)[C@H]1O` [Lactose monohydrate], the EC50 was 11700 µg/mL in data set [1] (setting [7]); 14000 µg/mL in data set [1] (setting [8]); 16400 µg/mL in data set [1] (NRRLB11177, 0.5 h, 30 min of exposure, EC50 calculated from extrapolated data, read-out: EC50 30 min). In data set [2], the EC50 at 30 min was above 100 µg/mL. This molecule also gave a pH in data set [3] of 5.113.
